Assay results as given in patent publication US12071453B2, “Neuroactive steroids, compositions, and uses thereof” (Sage Therapeutics, Inc., priority 2013, dated 2024).

Legend:
[1] = biological target: [35S]-TBPS binding in rat brain cortical membranes; assay: Steroid inhibition of [35S]-TBPS binding, rat brain cortical membranes; conditions: 3 nM [35S]-TBPS, in the presence of 5 μM GABA, read-out: 35S-TBPS Radioligand Displacement (IC50)
In short: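 Washed P2 cortical membranes from Sprague-Dawley rats were incubated 90 min at room temperature with 3 nM [35S]-TBPS, 5 μM GABA and test steroid (0.5% DMSO) in 200 mM NaCl/50 mM Na–K phosphate, pH 7.4. Nonspecific binding was defined with 2 μM unlabeled TBPS, and samples were filtered and counted. IC50 and Imax came from non-linear fits, reported as mean ± SEM.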

[2] = biological target: T1, GABAA receptors composed of the α1β2γ2 subunits (GABRA1/GABRB2/GABRG2) (Homo sapiens, UniProt P14867+P47870); assay: Two Electrode Voltage Clamp (TEVC), GABA receptor potentiation in Xenopus laevis oocytes, α1β2γ2; type: cell-based; conditions: 10 μM compound, 10 μM GABA, read-out: GABA (α1β2γ2) % efficacy at 10 μM
T1 construct: expressed in transfected cells; host or cells: Xenopus laevis oocytes, injected (ratio 1:1:1)
T1 sequence (P14867 28-456): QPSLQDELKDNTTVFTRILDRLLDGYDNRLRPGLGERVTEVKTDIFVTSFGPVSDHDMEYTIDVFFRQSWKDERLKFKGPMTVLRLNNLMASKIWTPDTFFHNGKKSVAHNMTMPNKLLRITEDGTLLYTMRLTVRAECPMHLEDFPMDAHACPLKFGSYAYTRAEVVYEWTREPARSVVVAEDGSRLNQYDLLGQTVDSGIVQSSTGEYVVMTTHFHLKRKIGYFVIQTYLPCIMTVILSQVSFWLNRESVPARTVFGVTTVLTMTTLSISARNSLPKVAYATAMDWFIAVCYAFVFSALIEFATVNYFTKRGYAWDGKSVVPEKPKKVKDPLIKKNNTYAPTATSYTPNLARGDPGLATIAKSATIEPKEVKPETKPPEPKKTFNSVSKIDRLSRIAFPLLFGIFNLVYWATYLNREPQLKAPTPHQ
T1 sequence (P47870 26-512): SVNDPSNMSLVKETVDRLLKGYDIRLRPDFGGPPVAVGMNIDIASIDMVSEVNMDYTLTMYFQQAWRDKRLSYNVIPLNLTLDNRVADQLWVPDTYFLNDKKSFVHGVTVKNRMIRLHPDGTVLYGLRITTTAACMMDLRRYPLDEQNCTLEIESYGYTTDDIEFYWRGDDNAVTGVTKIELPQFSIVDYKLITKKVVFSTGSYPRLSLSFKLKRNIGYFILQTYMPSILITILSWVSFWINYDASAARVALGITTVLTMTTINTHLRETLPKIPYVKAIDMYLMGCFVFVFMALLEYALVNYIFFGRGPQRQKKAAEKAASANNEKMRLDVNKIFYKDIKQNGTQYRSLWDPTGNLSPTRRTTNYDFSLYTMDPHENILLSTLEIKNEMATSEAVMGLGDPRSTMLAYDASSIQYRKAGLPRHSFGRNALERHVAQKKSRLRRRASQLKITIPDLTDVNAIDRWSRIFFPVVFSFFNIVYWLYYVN
T1 sequence (P18507 40-475 partner): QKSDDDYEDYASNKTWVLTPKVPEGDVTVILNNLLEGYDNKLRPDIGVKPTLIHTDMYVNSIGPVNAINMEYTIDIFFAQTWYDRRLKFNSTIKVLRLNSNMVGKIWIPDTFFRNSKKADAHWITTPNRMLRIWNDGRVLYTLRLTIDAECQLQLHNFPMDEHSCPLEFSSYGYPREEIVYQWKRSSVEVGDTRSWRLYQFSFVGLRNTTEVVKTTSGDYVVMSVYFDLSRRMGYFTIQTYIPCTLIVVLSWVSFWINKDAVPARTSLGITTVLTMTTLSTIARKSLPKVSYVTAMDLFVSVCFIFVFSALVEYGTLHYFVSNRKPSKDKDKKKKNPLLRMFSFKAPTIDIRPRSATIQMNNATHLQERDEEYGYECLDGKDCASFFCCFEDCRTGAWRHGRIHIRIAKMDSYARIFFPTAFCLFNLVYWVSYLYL

[3] = biological target: T2, recombinant α1β2γ2 GABAA receptors (Homo sapiens, UniProt P14867+P47870); assay: Patch clamp electrophysiology (QPatch) in LTK cells stably transfected with α1β2γ2; type: cell-based; conditions: 10 μM compound, 2 μM GABA (EC20), read-out: GABA (α1β2γ2) Qpatch in Ltk, % efficacy at 10 μM
T2 construct: expressed in transfected cells; host or cells: LTK cells, stably transfected
T2 sequence (P14867 28-456): as the sequence (P14867 28-456) above
T2 sequence (P47870 26-512): as the sequence (P47870 26-512) above
T2 sequence (P18507 40-475 partner): as the sequence (P18507 40-475 partner) above

[4] = biological target: T3, recombinant α4β3δ GABAA receptors (Homo sapiens, UniProt P28472+P48169); assay: Manual patch clamp electrophysiology in CHO cells transiently transfected with α4β3δ; type: cell-based; conditions: 10 μM compound, 2 μM GABA (EC20), read-out: GABA (α4β3δ) Manual patch in CHO, % efficacy at 10 μM
T3 construct: expressed in transfected cells; host or cells: CHO cells, transiently transfected (Lipofectamine)
T3 sequence (P48169 36-554): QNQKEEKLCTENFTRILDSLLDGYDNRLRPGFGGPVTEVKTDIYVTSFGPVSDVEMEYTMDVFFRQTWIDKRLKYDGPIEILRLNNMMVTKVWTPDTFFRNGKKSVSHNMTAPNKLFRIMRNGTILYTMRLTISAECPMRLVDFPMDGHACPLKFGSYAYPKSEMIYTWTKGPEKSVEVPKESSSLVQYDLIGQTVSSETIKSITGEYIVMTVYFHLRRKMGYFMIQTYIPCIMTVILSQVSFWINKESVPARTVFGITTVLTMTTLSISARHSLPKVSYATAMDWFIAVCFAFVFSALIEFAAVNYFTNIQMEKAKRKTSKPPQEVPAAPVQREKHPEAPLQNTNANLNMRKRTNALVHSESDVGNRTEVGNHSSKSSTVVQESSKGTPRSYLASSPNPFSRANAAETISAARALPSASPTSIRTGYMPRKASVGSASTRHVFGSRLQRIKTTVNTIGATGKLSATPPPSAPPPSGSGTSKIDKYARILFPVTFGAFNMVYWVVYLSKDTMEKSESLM
T3 sequence (P28472 26-473): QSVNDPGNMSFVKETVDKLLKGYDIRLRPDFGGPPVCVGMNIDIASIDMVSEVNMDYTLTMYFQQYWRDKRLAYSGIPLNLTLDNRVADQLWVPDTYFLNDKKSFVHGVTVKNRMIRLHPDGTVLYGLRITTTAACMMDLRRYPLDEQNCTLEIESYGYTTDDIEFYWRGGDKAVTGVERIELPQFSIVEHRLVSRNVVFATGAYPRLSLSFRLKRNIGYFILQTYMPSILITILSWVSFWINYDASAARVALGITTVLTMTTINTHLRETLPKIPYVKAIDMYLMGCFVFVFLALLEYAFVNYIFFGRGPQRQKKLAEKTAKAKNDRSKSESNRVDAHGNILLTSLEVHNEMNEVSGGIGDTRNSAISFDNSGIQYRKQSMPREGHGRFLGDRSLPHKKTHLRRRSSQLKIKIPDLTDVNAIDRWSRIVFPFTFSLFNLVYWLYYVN
T3 sequence (O14764 25-452 partner): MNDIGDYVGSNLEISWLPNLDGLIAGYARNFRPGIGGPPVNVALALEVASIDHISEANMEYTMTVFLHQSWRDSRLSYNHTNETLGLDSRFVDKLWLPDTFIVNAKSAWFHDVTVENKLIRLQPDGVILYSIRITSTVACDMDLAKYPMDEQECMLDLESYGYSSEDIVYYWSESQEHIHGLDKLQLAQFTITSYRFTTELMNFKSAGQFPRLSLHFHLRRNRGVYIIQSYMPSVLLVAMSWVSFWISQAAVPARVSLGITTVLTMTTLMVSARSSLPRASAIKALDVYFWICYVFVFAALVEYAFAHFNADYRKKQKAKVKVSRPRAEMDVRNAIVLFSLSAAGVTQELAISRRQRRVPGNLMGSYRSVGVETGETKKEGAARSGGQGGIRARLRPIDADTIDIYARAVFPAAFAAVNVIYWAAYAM

| SMILES | melting point [°C] | IC50 [1] [µM] | Emax at 10 µM [2] [%] | Emax at 10 µM [3] [%] | Emax at 10 µM [4] [%] |
| --- | --- | --- | --- | --- | --- |
| COC[C@]12CC[C@@](C)(O)C[C@@H]1CC[C@H]1[C@@H]3CC[C@H](C(=O)Cn4ccnn4)[C@@]3(C)CC[C@@H]12 [Compound 3] | 72 to 74 | > 0.5 | – | – | – |
| COC[C@]12CC[C@@](C)(O)C[C@@H]1CC[C@H]1[C@@H]3CC[C@H](C(=O)CN4CCN(C)CC4)[C@@]3(C)CC[C@@H]12 [Compound 8] | 136 to 137 | > 0.5 | – | – | – |
| COC[C@]12CC[C@@](C)(O)C[C@@H]1CC[C@H]1[C@@H]3CC[C@H](C(=O)Cn4cc(C#N)cn4)[C@@]3(C)CC[C@@H]12 [Compound 13] | 141 to 142 | 0.05 to 0.1 | 1000 to 1500 | – | – |
| COC[C@]12CC[C@@](C)(O)C[C@@H]1CC[C@H]1[C@@H]3CC[C@H](C(=O)Cn4ncnn4)[C@@]3(C)CC[C@@H]12 [Compound 14] | 72 to 75 | 0.01 to 0.05 | – | 100 to 500 | > 500 |
| COC[C@]12CC[C@@](C)(O)C[C@@H]1CC[C@H]1[C@@H]3CC[C@H](C(=O)Cn4cnnn4)[C@@]3(C)CC[C@@H]12 [Compound 15] | 88 to 91 | 0.1 to 0.5 | – | > 500 | 100 to 500 |
| COC[C@]12CC[C@@](C)(O)C[C@H]1CC[C@H]1[C@@H]3CC[C@H](C(=O)Cn4cc(C#N)cn4)[C@@]3(C)CC[C@@H]12 [Compound 27] | 176 to 178 | < 0.01 | 1000 to 1500 | – | – |
| COC[C@]12CC[C@@](C)(O)C[C@H]1CC[C@H]1[C@@H]3CC[C@H](C(=O)Cn4cc(Cl)cn4)[C@@]3(C)CC[C@@H]12 [Compound 34] | 163 to 165 | < 0.01 | 50 to 500 | – | – |
| COC[C@]12CC[C@@](C)(O)C[C@@H]1CC[C@H]1[C@@H]3CC[C@H](C(=O)Cn4nc5cc(F)cc(F)c5n4)[C@@]3(C)CC[C@@H]12 [Compound 55] | – | 0.05 to 0.1 | – | > 500 | > 500 |
| COC[C@]12CC[C@@](C)(O)C[C@H]1CC[C@H]1[C@@H]3CC[C@H](C(=O)Cn4nc5ccc(Cl)cc5n4)[C@@]3(C)CC[C@@H]12 [Compound 76] | – | < 0.01 | – | > 500 | > 500 |
